Molecular target: T1, GLP-1R (Homo sapiens, UniProt P43220)
T1 construct: host or cells: GLP-1R CRE-bla CHO-K1 cells
Experiment: EC20 GLP-1(9-36) PAM cAMP assay: dose response of compound in the presence of fixed concentration of GLP-1(9-36)
Format: cell-based
Details: GLP-1R CRE-bla CHO-K1 cells, compound dose response with fixed concentration of GLP-1(9-36), read-out: EC20 GLP-1(9-36) PAM EC50
Method in brief: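 Positive allosteric modulation read as cAMP accumulation: compound titrations (12 points) combined with an EC20 level of GLP-1(9-36) on CHO-K1 GLP-1R CRE-bla cells, IBMX present, 30 min, 37 °C, pH 7.4 buffer. Luminescence converted to cAMP via standards; non-linear fit gave EC50 and Emax.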

T1 sequence (P43220 24-463): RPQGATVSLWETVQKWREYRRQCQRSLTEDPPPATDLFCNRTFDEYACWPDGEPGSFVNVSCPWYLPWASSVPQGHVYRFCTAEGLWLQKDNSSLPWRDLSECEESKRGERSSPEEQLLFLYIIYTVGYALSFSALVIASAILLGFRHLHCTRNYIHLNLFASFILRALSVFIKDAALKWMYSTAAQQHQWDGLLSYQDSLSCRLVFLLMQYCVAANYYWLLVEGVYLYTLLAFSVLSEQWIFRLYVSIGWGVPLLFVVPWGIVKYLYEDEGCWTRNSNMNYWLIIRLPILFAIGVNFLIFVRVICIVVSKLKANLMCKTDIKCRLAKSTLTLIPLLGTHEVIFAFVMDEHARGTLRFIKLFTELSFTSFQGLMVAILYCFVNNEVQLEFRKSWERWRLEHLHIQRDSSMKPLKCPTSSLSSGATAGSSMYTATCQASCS
T1 sequence (P01275 100-127 partner limits assumed): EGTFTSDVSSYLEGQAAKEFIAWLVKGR

Row | SMILES | EC50 [nM]
1 | CCOc1ccc(-c2cnc(-c3ccc(C[C@H](NC(=O)c4ccc(C(C)(C)C)s4)C(=O)O)cc3)nc2)cc1 [Compound 1349] | 5000 to 10000
2 | CC(C)(C)COc1ccc(-c2cnc(-c3ccc(C[C@H](NC(=O)c4ccc(C(C)(C)C)s4)C(=O)O)cc3)nc2)cc1 [Compound 1350] | 2500 to 5000
3 | CC(C)(C)c1ccc(C(=O)N[C@@H](Cc2ccc(-c3ncc(-c4ccc(-c5ccccc5)c(F)c4)cn3)cc2)C(=O)O)s1 [Compound 1351] | 2500 to 5000
4 | CC(=O)c1ccc(-c2ccc(-c3cnc(-c4ccc(C[C@H](NC(=O)c5ccc(C(C)(C)C)s5)C(=O)O)cc4)nc3)cc2)cc1 [Compound 1352] | 800 to 2500
5 | CC(C)(C)c1ccc(C(=O)N[C@@H](Cc2ccc(-c3ncc(-c4ccc(-c5ccc(F)cc5)cc4)cn3)cc2)C(=O)O)s1 [Compound 1354] | 2500 to 5000
6 | CC(C)(C)c1ccc(C(=O)N[C@@H](Cc2ccc(-c3ncc(-c4ccc(-c5ccc(C(F)(F)F)cc5)cc4)cn3)cc2)C(=O)O)s1 [Compound 1355, (S)-2-(5-(tert-butyl)thiophene-2-carboxamido)-3-(4-(5-(4′-(trifluoromethyl)-[1,1′-biphenyl]-4-yl)pyrimidin-2-yl)phenyl)propanoic acid] | < 800
7 | CC(C)(C)c1ccc(C(=O)N[C@@H](Cc2ccc(-c3ncc(-c4ccc(-c5ccc(OC(F)(F)F)cc5)cc4)cn3)cc2)C(=O)O)s1 [Compound 1356, (S)-2-(5-(tert-butyl)thiophene-2-carboxamido)-3-(4-(5-(4′-(trifluoromethoxy)-[1,1′-biphenyl]-4-yl)pyrimidin-2-yl)phenyl)propanoic acid] | < 800
8 | CC(C)(C)c1ccc(C(=O)N[C@@H](Cc2ccc(-c3ncc(-c4ccc([C@H]5CC[C@@H](C)CC5)cc4)cn3)cc2)C(=O)O)s1 [Compound 1357] | 2500 to 5000
9 | CC(C)(C)c1ccc(C(=O)N[C@@H](Cc2ccc(-c3ncc(-c4ccc([C@H]5CC[C@H](C)CC5)cc4)cn3)cc2)C(=O)O)s1 [Compound 1358] | 2500 to 5000
10 | CC(C)c1ccc(-c2ccc(-c3cnc(-c4ccc(C[C@H](NC(=O)c5ccc(C(C)(C)C)s5)C(=O)O)cc4)nc3)c(F)c2)cc1 [Compound 1359] | 800 to 2500
11 | CC[C@H]1CC[C@@H](c2ccc(-c3cnc(-c4ccc(C[C@H](NC(=O)c5ccc(C(C)(C)C)s5)C(=O)O)cc4)nc3)c(F)c2)CC1 [Compound 1362] | < 800
12 | CC(C)(C)c1ccc(C(=O)N[C@@H](Cc2ccc(-c3ncc(-c4ccc(-c5ccc(C(F)(F)F)cc5)cc4F)cn3)cc2)C(=O)O)s1 [Compound 1364] | < 800
13 | CC(C)(C)c1ccc(C(=O)N[C@@H](Cc2ccc(-c3ncc(-c4ccc(-c5ccc(OC(F)(F)F)cc5)cc4F)cn3)cc2)C(=O)O)s1 [Compound 1365] | < 800
14 | CC[C@H]1CC[C@H](c2ccc(-c3cnc(-c4ccc(C[C@H](NC(=O)c5ccc(C(C)(C)C)nc5)C(=O)O)cc4)nc3)cc2)CC1 [Compound 1367] | < 800
15 | CC[C@H]1CC[C@H](c2ccc(-c3cnc(-c4ccc(C[C@H](NC(=O)c5cnc(C(C)(C)C)nc5)C(=O)O)cc4)nc3)cc2)CC1 [Compound 1368] | < 800
16 | CC[C@H]1CC[C@H](c2ccc(-c3cnc(-c4ccc(C[C@H](NC(=O)c5ccc(C(F)(F)F)s5)C(=O)O)cc4)nc3)cc2)CC1 [Compound 1369] | 800 to 2500
17 | CCc1ccc(C(=O)N[C@@H](Cc2ccc(-c3ncc(-c4ccc([C@H]5CC[C@H](CC)CC5)cc4)cn3)cc2)C(=O)O)cc1 [Compound 1370] | 800 to 2500

Row | SMILES | EC50 [nM]
18 | CC[C@H]1CC[C@H](c2ccc(-c3cnc(-c4ccc(C[C@H](NC(=O)c5ccc(C(C)(C)C#N)s5)C(=O)O)cc4)nc3)cc2)CC1 [Compound 1373] | < 800
19 | CC[C@H]1CC[C@H](c2ccc(-c3cnc(-c4ccc(C[C@H](NC(=O)c5ccc(C(F)(F)F)cc5)C(=O)O)cc4)nc3)cc2)CC1 [Compound 1374] | 800 to 2500
20 | CCC(C)(C)c1ccc(C(=O)N[C@@H](Cc2ccc(-c3ncc(-c4ccc([C@H]5CC[C@H](CC)CC5)cc4)cn3)cc2)C(=O)O)cc1 [Compound 1375] | 800 to 2500
21 | CCCOc1ccc(C(=O)N[C@@H](Cc2ccc(-c3ncc(-c4ccc([C@H]5CC[C@H](CC)CC5)cc4)cn3)cc2)C(=O)O)cc1 [Compound 1377] | 800 to 2500
22 | CC[C@H]1CC[C@H](c2ccc(-c3cnc(-c4ccc(C[C@H](NC(=O)c5cnn(C(C)(C)C)c5)C(=O)O)cc4)nc3)cc2)CC1 [Compound 1378] | < 800
23 | CC[C@H]1CC[C@H](c2ccc(-c3cnc(-c4ccc(C[C@H](NC(=O)c5ccc(S(C)(=O)=O)cc5)C(=O)O)cc4)nc3)cc2)CC1 [Compound 1379] | < 800
24 | CC[C@H]1CC[C@H](c2ccc(-c3cnc(-c4ccc(C[C@H](NC(=O)c5ccc(N(C)C)cc5)C(=O)O)cc4)nc3)cc2)CC1 [Compound 1380] | 800 to 2500
25 | CC[C@H]1CC[C@H](c2ccc(-c3cnc(-c4ccc(C[C@H](NC(=O)c5ccc(CC(C)C)s5)C(=O)O)cc4)nc3)cc2)CC1 [Compound 1381] | 5000 to 10000
26 | CC[C@H]1CC[C@H](c2ccc(-c3cnc(-c4ccc(C[C@H](NC(=O)c5ccc(C(F)(F)F)nc5)C(=O)O)cc4)nc3)cc2)CC1 [Compound 1388] | 800 to 2500
27 | CC[C@H]1CC[C@H](c2ccc(-c3cnc(-c4ccc(C[C@H](NC(=O)c5ccc(C(C)C)s5)C(=O)O)cc4)nc3)cc2)CC1 [Compound 1389] | < 800
28 | CCc1ccc(C(=O)N[C@@H](Cc2ccc(-c3ncc(-c4ccc([C@H]5CC[C@H](CC)CC5)cc4)cn3)cc2)C(=O)O)cn1 [Compound 1390] | 5000 to 10000
29 | CC(C)c1ccc(-c2ccc(-c3cnc(-c4ccc(C[C@H](NC(=O)c5ccc(C(C)(C)C)s5)C(=O)N5CC(C(=O)O)C5)cc4)nc3)cc2)cc1 [Compound 1395] | < 800
30 | CC(C)Oc1ccc(-c2ccc(-c3cnc(-c4ccc(C[C@H](NC(=O)c5ccc(C(C)(C)C)s5)C(=O)N5CC(C(=O)O)C5)cc4)nc3)c(F)c2)cc1 [Compound 1396] | < 800
31 | CCCc1ccc(-c2ccc(-c3cnc(-c4ccc(C[C@H](NC(=O)c5ccc(C(C)C)s5)C(=O)N5CC(C(=O)O)C5)cc4)nc3)c(F)c2)cc1 [Compound 1398] | < 800
32 | CCCc1ccc(-c2ccc(-c3cnc(-c4ccc(C[C@H](NC(=O)c5ccc(C(C)(C)C)cc5)C(=O)N5CC(C(=O)O)C5)cc4)nc3)c(F)c2)cc1 [Compound 1399] | < 800
33 | CCCc1ccc(-c2ccc(-c3cnc(-c4ccc(C[C@H](NC(=O)c5ccc(C(F)(F)F)cc5)C(=O)N5CC(C(=O)O)C5)cc4)nc3)c(F)c2)cc1 [Compound 1400] | < 800

Other lines, results leading:

Row | EC50 [nM] | SMILES
34 | 5000 to 10000 | CC(C)(C)c1ccc(C(=O)N[C@@H](Cc2ccc(-c3ncc(-c4ccc(OCCN5CCCCC5)cc4)cn3)cc2)C(=O)O)s1 [Compound 1353]
35 | 2500 to 5000 | CCCOc1ccc(-c2ccc(-c3cnc(-c4ccc(C[C@H](NC(=O)c5ccc(C(C)(C)C)s5)C(=O)O)cc4)nc3)c(F)c2)cc1 [Compound 1360]
36 | 800 to 2500 | CCCCc1ccc(-c2ccc(-c3cnc(-c4ccc(C[C@H](NC(=O)c5ccc(C(C)(C)C)s5)C(=O)O)cc4)nc3)c(F)c2)cc1 [Compound 1361]
37 | < 800 | CC[C@H]1CC[C@H](c2ccc(-c3cnc(-c4ccc(C[C@H](NC(=O)c5ccc(C(C)(C)C)s5)C(=O)O)cc4)nc3)c(F)c2)CC1 [Compound 1363]
38 | < 800 | CC[C@H]1CC[C@H](c2ccc(-c3cnc(-c4ccc(C[C@H](NC(=O)c5ccc(C(C)(C)C)cc5)C(=O)O)cc4)nc3)cc2)CC1 [Compound 1366]
39 | 800 to 2500 | CC[C@H]1CC[C@H](c2ccc(-c3cnc(-c4ccc(C[C@H](NC(=O)c5ccc(C)cc5)C(=O)O)cc4)nc3)cc2)CC1 [Compound 1371]
40 | 800 to 2500 | CCCc1ccc(C(=O)N[C@@H](Cc2ccc(-c3ncc(-c4ccc([C@H]5CC[C@H](CC)CC5)cc4)cn3)cc2)C(=O)O)cc1 [Compound 1372]
41 | 800 to 2500 | CC[C@H]1CC[C@H](c2ccc(-c3cnc(-c4ccc(C[C@H](NC(=O)c5ccc(C(C)=O)cc5)C(=O)O)cc4)nc3)cc2)CC1 [Compound 1376]
42 | 800 to 2500 | CC[C@H]1CC[C@H](c2ccc(-c3cnc(-c4ccc(C[C@H](NC(=O)c5ccc(OC(C)C)cc5)C(=O)O)cc4)nc3)cc2)CC1 [Compound 1382]
43 | 800 to 2500 | CC[C@H]1CC[C@H](c2ccc(-c3cnc(-c4ccc(C[C@H](NC(=O)c5ccc(CC(C)C)cc5)C(=O)O)cc4)nc3)cc2)CC1 [Compound 1383]
44 | 800 to 2500 | CC[C@H]1CC[C@H](c2ccc(-c3cnc(-c4ccc(C[C@H](NC(=O)c5ccc(OC(F)(F)F)cc5)C(=O)O)cc4)nc3)cc2)CC1 [Compound 1384]
45 | 5000 to 10000 | CC[C@H]1CC[C@H](c2ccc(-c3cnc(-c4ccc(C[C@H](NC(=O)c5ccc(C)s5)C(=O)O)cc4)nc3)cc2)CC1 [Compound 1385]
46 | 800 to 2500 | CC[C@H]1CC[C@H](c2ccc(-c3cnc(-c4ccc(C[C@H](NC(=O)c5ccc(Cl)cc5)C(=O)O)cc4)nc3)cc2)CC1 [Compound 1386]
47 | < 800 | CC[C@H]1CC[C@H](c2ccc(-c3cnc(-c4ccc(C[C@H](NC(=O)c5ccc(C(C)C)cc5)C(=O)O)cc4)nc3)cc2)CC1 [Compound 1387]
48 | < 800 | CC[C@H]1CC[C@H](c2ccc(-c3cnc(-c4ccc(C[C@H](NC(=O)c5cnc(C6CC6)nc5)C(=O)O)cc4)nc3)cc2)CC1 [Compound 1391]
49 | 800 to 2500 | CC[C@H]1CC[C@H](c2ccc(-c3cnc(-c4ccc(C[C@@H](NC(=O)c5ccc(C(C)(C)C)s5)C(=O)O)cc4)nc3)cc2)CC1 [Compound 1392]
50 | 800 to 2500 | CCCc1ccc(-c2ccc(-c3cnc(-c4ccc(C[C@H](NC(=O)c5ccc(C(C)(C)C)s5)C(=O)O)cc4)nc3)cc2)cc1 [Compound 1393]
51 | < 800 | CCCCc1ccc(-c2ccc(-c3cnc(-c4ccc(C[C@H](NC(=O)c5ccc(C(C)(C)C)s5)C(=O)N5CC(C(=O)O)C5)cc4)nc3)cc2)cc1 [Compound 1394]
52 | < 800 | CCCc1ccc(-c2ccc(-c3cnc(-c4ccc(C[C@H](NC(=O)c5ccc(CC)s5)C(=O)N5CC(C(=O)O)C5)cc4)nc3)c(F)c2)cc1 [Compound 1397]
